# Experimental data taken from paper PMC6576746, “Rational discovery of dual-indication multi-target PDE/Kinase inhibitor for precision anti-cancer therapy using structural systems pharmacology” (PLoS Computational Biology, 2019).
# What was measured:
# Experiment in all cases: cells
# Set-up in all cases: species or system panel of human cancer cell lines; Eurofins OncoPanel proliferation; nuclei count by high-content fluorescence imaging, 10-point dose response
# [1] = test system: 769-P; conditions: Homo sapiens, 769-P, 72 h, cell count, 3 days
# Procedure, shortened: (§1)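 Ten half-log concentrations from 100 μM (0.1% DMSO max) applied one day post-seeding, 3-day exposure at 37°C; untreated time-zero plate for GI50. Readout is nuclear cell count by automated fluorescence imaging, giving EC50, IC50, GI50 and 0–10 activity area.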
# [2] = test system: HOS; conditions: Homo sapiens, HOS, 72 h, cell count, 3 days
# Procedure, shortened: as §1
# [3] = test system: HT-1080; conditions: Homo sapiens, HT-1080, 72 h, cell count, 3 days
# Procedure, shortened: as §1
# [4] = test system: Hs 578T; conditions: Homo sapiens, Hs-578T, 72 h, cell count, 3 days
# Procedure, shortened: as §1
# [5] = test system: K562; conditions: Homo sapiens, K562, 72 h, cell count, 3 days
# Procedure, shortened: as §1
# [6] = test system: LS411N; conditions: Homo sapiens, LS-411N, 72 h, cell count, 3 days
# Procedure, shortened: as §1
# [7] = test system: NCI-H508; conditions: Homo sapiens, NCI-H508, 72 h, cell count, 3 days
# Procedure, shortened: as §1
# [8] = test system: NCIH441; conditions: Homo sapiens, NCI-H441, 72 h, cell count, 3 days
# Procedure, shortened: as §1
# [9] = test system: RD; conditions: Homo sapiens, RD, 72 h, cell count, 3 days
# Procedure, shortened: as §1
# [10] = test system: SK-PN-DW; conditions: 72 h, cell count, 3 days
# Procedure, shortened: as §1
# [11] = test system: SW1353; conditions: Homo sapiens, SW1353, 72 h, cell count, 3 days
# Procedure, shortened: as §1
# [12] = test system: SiHa; conditions: Homo sapiens, SiHa, 72 h, cell count, 3 days
# Procedure, shortened: as §1
# [13] = test system: TF-1; conditions: Homo sapiens, TF-1, 72 h, cell count, 3 days
# Procedure, shortened: as §1
# [14] = test system: Thp1; conditions: Homo sapiens, THP-1, 72 h, cell count, 3 days
# Procedure, shortened: as §1
# [15] = 50% of maximum possible response
structure (smiles),measurement,setting,value
C[C@@H]1CC(=O)NN=C1c1ccc(NN=C(C#N)C#N)cc1 [levosimendan],IC50,[1]; [15],40 µM
same,GI50,[1]; corrected for time zero,28.6 µM
same,EC50,[1]; curve inflection point,94.2 µM
same,IC50,[2]; [15],11.4 µM
same,GI50,[2]; corrected for time zero,9.54 µM
same,EC50,[2]; curve inflection point,11.4 µM
same,IC50,[3]; [15],11.7 µM
same,GI50,[3]; corrected for time zero,10.9 µM
same,EC50,[3]; curve inflection point,11.7 µM
same,IC50,[4]; [15],> 100 µM
same,GI50,[4]; corrected for time zero,> 100 µM
same,EC50,[4]; curve inflection point,48 µM
same,IC50,[5]; [15],44.4 µM
same,GI50,[5]; corrected for time zero,38.5 µM
same,EC50,[5]; curve inflection point,44.4 µM
same,IC50,[6]; [15],> 100 µM
same,GI50,[6]; corrected for time zero,> 100 µM
same,EC50,[6]; curve inflection point,> 100 µM
same,IC50,[7]; [15],38.4 µM
same,GI50,[7]; corrected for time zero,33.5 µM
same,EC50,[7]; curve inflection point,38.4 µM
same,IC50,[8]; [15],> 100 µM
same,GI50,[8]; corrected for time zero,31.9 µM
same,EC50,[8]; curve inflection point,> 100 µM
same,IC50,[9]; [15],20.6 µM
same,GI50,[9]; corrected for time zero,15.7 µM
same,EC50,[9]; curve inflection point,20.6 µM
same,IC50,[10]; [15],57.4 µM
same,GI50,[10]; corrected for time zero,43.3 µM
same,EC50,[10]; curve inflection point,57.4 µM
same,IC50,[11]; [15],72.8 µM
same,GI50,[11]; corrected for time zero,60.9 µM
same,EC50,[11]; curve inflection point,72.8 µM
same,IC50,[12]; [15],> 100 µM
same,GI50,[12]; corrected for time zero,60 µM
same,EC50,[12]; curve inflection point,41.2 µM
same,IC50,[13]; [15],41.7 µM
same,GI50,[13]; corrected for time zero,19.7 µM
same,EC50,[13]; curve inflection point,41.7 µM
same,IC50,[14]; [15],35.5 µM
same,GI50,[14]; corrected for time zero,23.1 µM
same,EC50,[14]; curve inflection point,35.5 µM
